# Measured values from ChEMBL document CHEMBL1201862, “PubChem BioAssay data set” (2004).
#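 Grown in 96-well plates, cells were treated for 48 hours with each compound at five concentrations. Insufficient inhibition: endpoint recorded as highest concentration tested. GI50: concentration for 50% inhibition of growth.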 Activity calls are given as the source filed them. No stated cut-off is given here; in the data, active = GI50 up to about 1.1 µM and inactive = higher.
# Columns and labels:
# Test in all cases: growth of human tumour cells (NCI), 48 h
# NCI-H522 = tested on: NCI-H522
# SK-MEL-2 = tested on: SK-MEL-2
# SK-OV-3 = tested on: SK-OV-3
# SK-MEL-28 = tested on: SK-MEL-28
# MDA-MB-231 = tested on: MDA-MB-231
# Hs-578T = tested on: Hs-578T
# U-251 = tested on: U-251
# RPMI-8226 = tested on: RPMI-8226
# DU-145 = tested on: DU-145
# 786-0 = tested on: 786-0
# HT-29 = tested on: HT-29
# KM12 = tested on: KM12
# NCI-H226 = tested on: NCI-H226
# HOP-92 = tested on: HOP-92
# CAKI-1 = tested on: CAKI-1
# HCT-116 = tested on: HCT-116
# MOLT-4 = tested on: MOLT-4
# M14 = tested on: M14
# SN12C = tested on: SN12C
# MDA-N = tested on: MDA-N
# TK-10 = tested on: TK-10
# IGROV-1 = tested on: IGROV-1
# T47D = tested on: T47D
# SF-539 = tested on: SF-539
# OVCAR-8 = tested on: OVCAR-8
# EKVX = tested on: EKVX
# MDA-MB-435 = tested on: MDA-MB-435
# PC-3 = tested on: PC-3
# A549 = tested on: A549
# UACC-62 = tested on: UACC-62
# OVCAR-5 = tested on: OVCAR-5
# A498 = tested on: A498
# HCT-15 = tested on: HCT-15
# RXF 393 = tested on: RXF 393
# SF-268 = tested on: SF-268
# K562 = tested on: K562
# NCI-H460 = tested on: NCI-H460
# UACC-257 = tested on: UACC-257
# LOX IMVI = tested on: LOX IMVI
# HOP-62 = tested on: HOP-62
# SR = tested on: SR
# SF-295 = tested on: SF-295
# NCI-H23 = tested on: NCI-H23
# SK-MEL-5 = tested on: SK-MEL-5
# BT-549 = tested on: BT-549
# HCC 2998 = tested on: HCC 2998
# MCF7 = tested on: MCF7
# COLO 205 = tested on: COLO 205
# SNB-75 = tested on: SNB-75
# NCI/ADR-RES = tested on: NCI/ADR-RES
# OVCAR-3 = tested on: OVCAR-3
# ACHN = tested on: ACHN
# UO-31 = tested on: UO-31
# SW-620 = tested on: SW-620
# Malme-3M = tested on: Malme-3M
# HL-60 = tested on: HL-60
# CCRF-CEM = tested on: CCRF-CEM
# OVCAR-4 = tested on: OVCAR-4
# SNB-19 = tested on: SNB-19
compound,measurement,setting,value
CC(=O)OCC1OC(Sc2nc(-c3ccccc3)c(C#N)c(=O)n2C2OC(COC(C)=O)C(OC(C)=O)C(OC(C)=O)C2OC(C)=O)C(OC(C)=O)C(OC(C)=O)C1OC(C)=O (configuration not stated),GI50,NCI-H522,> 100 µM (inactive)
same,GI50,SK-MEL-2,> 100 µM (inactive)
same,GI50,SK-OV-3,> 100 µM (inactive)
same,GI50,SK-MEL-28,> 100 µM (inactive)
same,GI50,MDA-MB-231,> 100 µM (inactive)
same,GI50,Hs-578T,> 100 µM (inactive)
same,GI50,U-251,> 100 µM (inactive)
same,GI50,RPMI-8226,> 100 µM (inactive)
same,GI50,DU-145,> 100 µM (inactive)
same,GI50,786-0,> 100 µM (inactive)
same,GI50,HT-29,> 100 µM (inactive)
same,GI50,KM12,> 100 µM (inactive)
same,GI50,NCI-H226,> 100 µM (inactive)
same,GI50,HOP-92,> 100 µM (inactive)
same,GI50,CAKI-1,> 100 µM (inactive)
same,GI50,HCT-116,> 100 µM (inactive)
same,GI50,MOLT-4,> 100 µM (inactive)
same,GI50,M14,> 100 µM (inactive)
same,GI50,SN12C,> 100 µM (inactive)
same,GI50,MDA-N,> 100 µM (inactive)
same,GI50,TK-10,> 100 µM (inactive)
same,GI50,IGROV-1,> 100 µM (inactive)
same,GI50,T47D,> 100 µM (inactive)
same,GI50,SF-539,> 100 µM (inactive)
same,GI50,OVCAR-8,> 100 µM (inactive)
same,GI50,EKVX,> 100 µM (inactive)
same,GI50,MDA-MB-435,> 100 µM (inactive)
same,GI50,PC-3,> 100 µM (inactive)
same,GI50,A549,> 100 µM (inactive)
same,GI50,UACC-62,> 100 µM (inactive)
same,GI50,OVCAR-5,> 100 µM (inactive)
same,GI50,A498,> 100 µM (inactive)
same,GI50,HCT-15,> 100 µM
same,GI50,RXF 393,> 100 µM (inactive)
same,GI50,SF-268,> 100 µM (inactive)
same,GI50,K562,32.2 µM (inactive)
same,GI50,NCI-H460,> 100 µM (inactive)
same,GI50,UACC-257,> 100 µM (inactive)
same,GI50,LOX IMVI,> 100 µM (inactive)
same,GI50,HOP-62,> 100 µM (inactive)
same,GI50,SR,> 100 µM (inactive)
same,GI50,SF-295,> 100 µM (inactive)
same,GI50,NCI-H23,> 100 µM (inactive)
same,GI50,SK-MEL-5,> 100 µM (inactive)
same,GI50,BT-549,> 100 µM (inactive)
same,GI50,HCC 2998,8.11 µM (inactive)
same,GI50,MCF7,> 100 µM (inactive)
same,GI50,COLO 205,> 100 µM (inactive)
same,GI50,SNB-75,> 100 µM (inactive)
same,GI50,NCI/ADR-RES,> 100 µM (inactive)
same,GI50,OVCAR-3,> 100 µM (inactive)
same,GI50,ACHN,> 100 µM (inactive)
same,GI50,UO-31,> 100 µM (inactive)
same,GI50,SW-620,> 100 µM (inactive)
O=C1c2c[nH]nc2C(c2ccccc2)N1c1ccccc1 (configuration not stated),GI50,NCI-H522,> 10 µM (inactive)
same,GI50,SK-MEL-2,> 10 µM (inactive)
same,GI50,SK-OV-3,> 10 µM (inactive)
same,GI50,SK-MEL-28,> 10 µM (inactive)
same,GI50,MDA-MB-231,> 10 µM (inactive)
same,GI50,Hs-578T,> 10 µM (inactive)
same,GI50,U-251,> 10 µM (inactive)
same,GI50,RPMI-8226,> 10 µM (inactive)
same,GI50,DU-145,> 10 µM (inactive)
same,GI50,Malme-3M,> 10 µM (inactive)
same,GI50,786-0,> 10 µM (inactive)
same,GI50,HT-29,> 10 µM (inactive)
same,GI50,KM12,> 10 µM (inactive)
same,GI50,NCI-H226,> 10 µM (inactive)
same,GI50,HOP-92,> 10 µM (inactive)
same,GI50,CAKI-1,> 10 µM (inactive)
same,GI50,HCT-116,> 10 µM (inactive)
same,GI50,MOLT-4,> 10 µM (inactive)
same,GI50,M14,> 10 µM (inactive)
same,GI50,SN12C,> 10 µM (inactive)
same,GI50,MDA-N,> 10 µM (inactive)
same,GI50,TK-10,> 10 µM (inactive)
same,GI50,IGROV-1,> 10 µM (inactive)
same,GI50,T47D,> 10 µM (inactive)
same,GI50,HL-60,> 10 µM (inactive)
same,GI50,SF-539,> 10 µM (inactive)
same,GI50,OVCAR-8,> 10 µM (inactive)
same,GI50,EKVX,> 10 µM (inactive)
same,GI50,MDA-MB-435,> 10 µM (inactive)
same,GI50,PC-3,> 10 µM (inactive)
same,GI50,A549,> 10 µM (inactive)
same,GI50,UACC-62,> 10 µM (inactive)
same,GI50,OVCAR-5,> 10 µM (inactive)
same,GI50,CCRF-CEM,> 10 µM (inactive)
same,GI50,A498,> 10 µM (inactive)
same,GI50,HCT-15,> 10 µM
same,GI50,RXF 393,> 10 µM (inactive)
same,GI50,OVCAR-4,> 10 µM (inactive)
same,GI50,SF-268,> 10 µM (inactive)
same,GI50,NCI-H460,> 10 µM (inactive)
same,GI50,UACC-257,> 10 µM (inactive)
same,GI50,LOX IMVI,> 10 µM (inactive)
same,GI50,HOP-62,> 10 µM (inactive)
same,GI50,SR,> 10 µM (inactive)
same,GI50,SNB-19,> 10 µM (inactive)
same,GI50,SF-295,> 10 µM (inactive)
same,GI50,NCI-H23,> 10 µM (inactive)
same,GI50,SK-MEL-5,> 10 µM (inactive)
same,GI50,BT-549,> 10 µM (inactive)
same,GI50,HCC 2998,> 10 µM (inactive)
same,GI50,MCF7,> 10 µM (inactive)
same,GI50,COLO 205,> 10 µM (inactive)
same,GI50,SNB-75,> 10 µM (inactive)
same,GI50,NCI/ADR-RES,> 10 µM (inactive)
same,GI50,OVCAR-3,> 10 µM (inactive)
same,GI50,ACHN,> 10 µM (inactive)
same,GI50,UO-31,> 10 µM (inactive)
same,GI50,SW-620,> 10 µM (inactive)
